From patent US8658592B2, “Biologically active peptides and their new uses” (priority 2005, dated 2014)
Marks after values point to notes of the source that are not given here. Ends that are not written are not given here. Peptide text beside a SMILES is read from it.

What was measured:
[1] = tested on: human hepatitis B virus (HBV), 2.2.15 cell line; experiment: Test 1: inhibition of HBsAg and HBeAg in 2.2.15 cells (ELISA); format: cell-based; settings: 400 μg/ml
Protocol: 2.2.15 cells at log phase were harvested and adjusted to 2×10^6/ml with MEM (containing 10% fetal bovine serum, […]). The suspension was inoculated on a 24-well culture plate with 1.5 ml per well, and incubated at 37° C., 5% CO2 for 48 hours for attachment. The peptides were added to the final concentration of 400 μg/ml with 3 parallel wells per sample. One set of blank control (3 wells) was also prepared, in which the peptide was replaced with culture medium. The plate was incubated at 37° C. for 4 days, the culture medium was then exchanged with freshly prepared medium (of the same composition as the original), and the plate was incubated for a further 4 days. By the end of incubation, the supernatants of the culture were collected, and the titers of HBsAg and HBeAg were determined by ELISA method according to the instruction of the detection kit manufacturer.

[2] = tested on: human hepatitis B virus (HBV), 2.2.15 cell line; experiment: Test 2: inhibition of HBV-DNA in 2.2.15 cells (fluorescence quantitative PCR); format: cell-based; settings: 160 μg/ml
Protocol: The preparation and incubation of cell suspension was repeated as in test 1 above, but at the peptide concentration of 160 μg/ml.

[3] = tested on: carrageenin induced foot swelling; experiment: carrageenin induced foot swelling in rats; format: in vivo, Wistar rats
Protocol: Wistar rats were divided randomly into DXM group (0.2 mg/kg/day), saline control group (1 ml/day), and three dosages of CMS-030 groups (2, 10, 20 μg/ml/day). All of the drugs were diluted to 0.5 ml with saline, and were administered intraperitoneally (i.p) daily. Two weeks after drug administration, 0.15 ml of 1% carrageenin saline solution was applied to the right foot by subcutaneous injection. 0.5 hr later, the circumference of right foot was measured precisely, and foot swelling was calculated by subtracting the pre-challenge circumference from the post-challenge value Inhibition index (%)=(foot swelling of saline control group−foot swelling of drug group)/foot swelling of saline control group×100%.

[4] = tested on: duck hepatitis B virus (DHBV); experiment: Chongqing duck hepatitis B animal model: serum DHBV DNA and DHBsAg; format: in vivo, Chongqing ducks
Protocol: CMS-017 dissolved in saline was applied to Chongqing duck hepatitis B animal model by intramuscular injection for 28 days. The serum levels of DHBV DNA and DHBsAg (duck hepatitis B surface antigen) were observed by serum dot-blot hybridization and ELISA respectively and compared with blank control.
0.1 ml DHBV DNA positive serum (5×10^7 copies/ml) was inoculated into the abdominal cavity of one-day old Chongqing ducks to set up the hepatitis animal model. 10 days after inoculation, blood samples were collected from the external jugular vein and success of infection was confirmed by dot-blot hybridization with DHBV DNA probe labeled with digoxi^[3].
2) CMS-017 group (n=12): 200 μg/kg/day CMS-017 (dissolved in 1 ml normal saline) applied by intramuscular injection, once per day.
The treatment lasted for 4 weeks, and observation continued for another one week after termination of treatment. 1 ml blood samples were drawn from the external jugular vein on days 0, 7, 14, 21, 28, and 35 from the start of treatment. The sera were isolated^[4] and stored at −20° C. until analysis.
DHBV DNA probe was fluorescent-labeled according to the labeling kit protocol from the manufacturer (Roche Co.). Duck sera were dot-blotted (2 dot per sample) onto nitrocellulose membrane and hybridized with fluorescent-labeled probe for DHBV DNA quantitation^[3]. DHBV DNA 40 μl+DHBsAg 100 μl was used as internal standard. CDP-Star fluorimetry reagent was used for amplification of the fluorescence. Vuego Scan (Brisa-620st) scanner was used for film scanning, and Discovery Series Quantity One software for quantitative analysis of the blots. The blot value was described as “volume” (volume=intensity×mm^2)
DHBsAg level was determined by ELISA method^[5-8], and the O.D value was obtained by ELISA reader (Bio-TEK Co.) at 490 nm.

[5] = human hepatitis B virus, 2.2.15 cell line, 48 h
[6] = 0.5 hr after carrageenin, 0.2 mg/kg/d
[7] = Week 5 (one week after termination of treatment)

Molecule: C[C@H](N)C(=O)N[C@@H](C)C(=O)N[C@@H](Cc1ccccc1)C(=O)O [CMS-023, Ala Ala Phe] (H-Ala-Ala-Phe-OH; N-terminus and C-terminus assumed)
- Inhibition ratio to HBeA [1, 5]: 53.7%*
- Inhibition ratio to HBsA: [1, 5]: 58.4%*
- % HBV-DNA inhibition ([2]; human hepatitis B virus, 2.2.15 cell line): 70.8%*

Molecule: C[C@@H]1C[C@H]2[C@@H]3CCC4=CC(=O)C=C[C@]4(C)[C@@]3(F)[C@@H](O)C[C@]2(C)[C@@]1(O)C(=O)CO [DXM, Dexamethasone]
- Inhibition Index 0.5 hr [3, 6]: 63.0** %
- Swelling 0.5 hr [3, 6]: 2.74 ± 0.10 cm
- Pre-challenge circumference ([3]; right foot, 0.2 mg/kg/d i.p., two weeks): 2.49 ± 0.05 cm

Molecule: IVTNTT [CMS-017, Ile-Val-Thr-Asn-Thr-Thr]
- Inhibition ratio to HBeA ([1]; 2.2.15 cells, 8 days): 62.2%*
- Inhibition ratio to HBsA: ([1]; 2.2.15 cells, 8 days): 68.6%*
- Serum DHBV DNA titer ([4]; Pre-treatment, 200 μg/kg/day i.m. group): 2207.0 ± 237.5 volume
- Serum DHBsAg O.D. value ([4]; Pre-treatment, 200 μg/kg/day i.m. group, 490 nm): 0.928 ± 0.402
- Serum DHBV DNA titer ([4]; Week 1, 200 μg/kg/day i.m.): 1991.8 ± 378.9 volume
- Serum DHBsAg O.D. value ([4]; Week 1, 200 μg/kg/day i.m.): 0.761 ± 0.328
- Serum DHBV DNA titer ([4]; Week 2, 200 μg/kg/day i.m.): 1925.0 ± 549.9 volume
- Serum DHBsAg O.D. value ([4]; Week 2, 200 μg/kg/day i.m.): 0.668 ± 0.310
- Serum DHBV DNA titer ([4]; Week 3, 200 μg/kg/day i.m.): 1743.9 ± 555.0 volume
- Serum DHBsAg O.D. value ([4]; Week 3, 200 μg/kg/day i.m.): 0.551 ± 0.268
- Serum DHBV DNA titer ([4]; Week 4, 200 μg/kg/day i.m.): 1544.9 ± 389.7 volume
- Serum DHBsAg O.D. value ([4]; Week 4, 200 μg/kg/day i.m.): 0.479 ± 0.279
- Serum DHBV DNA titer [4, 7]: 1742.7 ± 437.0 volume
- Serum DHBsAg O.D. value [4, 7]: 0.488 ± 0.182
- rebound of serum DHBV DNA and DHBsAg ([4]; upon discontinuation of treatment for 7 days): rebound was not observed
- % HBV-DNA inhibition ([2]; 2.2.15 cells): 90.8%*
